“And” between values parts separate entries of the source, which are not always exact repeats. Identical values can stand only once.
O=C(C(F)(F)C(F)(F)F)C(F)(C(F)(F)F)C(F)(F)F [dodecafluoro-2-methylpentan-3-one]
Conditions	thermal conductivity
416.9 K, 36 kPa, Gas, hot wire	0.02006 W/m/K
416.9 K, 371 kPa, Gas, hot wire	0.0221 W/m/K
416.9 K, 588 kPa, Gas, hot wire	0.02223 W/m/K
416.9 K, 16292 kPa, Liquid, transient hot wire	0.05129 W/m/K
416.91 K, 372 kPa, Gas, hot wire	0.02173 W/m/K
416.94 K, 50897 kPa, Liquid, transient hot wire	0.06577 W/m/K
416.94 K, 50918 kPa, Liquid, transient hot wire	0.06559 W/m/K
416.96 K, 1022 kPa, Gas, transient hot wire	0.02164 W/m/K
416.96 K, 2206 kPa, Liquid, transient hot wire	0.04045 W/m/K
416.96 K, 24851 kPa, Liquid, transient hot wire	0.05549 W/m/K
416.96 K, 24868 kPa, Liquid, transient hot wire	0.05555 W/m/K
416.96 K, 35761 kPa, Liquid, transient hot wire	0.06013 W/m/K
416.97 K, 1022 kPa, Gas, transient hot wire	0.02164 W/m/K
416.97 K, 2207 kPa, Liquid, transient hot wire	0.04051 W/m/K
416.97 K, 35765 kPa, Liquid, transient hot wire	0.06009 W/m/K
416.98 K, 10573 kPa, Liquid, transient hot wire	0.04835 W/m/K
416.98 K, 10595 kPa, Liquid, transient hot wire	0.04788 W/m/K
417 K, 369 kPa, Gas, hot wire	0.0224 W/m/K
417 K, 1132 kPa, Gas, transient hot wire	0.02284 W/m/K
417.01 K, 369 kPa, Gas, hot wire	0.02218 W/m/K
417.01 K, 1132 kPa, Gas, transient hot wire	0.02288 W/m/K
417.02 K, 6421 kPa, Liquid, transient hot wire	0.04518 W/m/K
417.03 K, 36 kPa, Gas, hot wire	0.01958 W/m/K
417.04 K, 587 kPa, Gas, hot wire	0.0216 W/m/K
417.04 K, 6421 kPa, Liquid, transient hot wire	0.0448 W/m/K
417.05 K, 587 kPa, Gas, hot wire	0.02156 W/m/K
417.06 K, 16291 kPa, Liquid, transient hot wire	0.05136 W/m/K
417.06 K, 16299 kPa, Liquid, transient hot wire	0.05141 W/m/K
417.07 K, 1170 kPa, Liquid, transient hot wire	0.03917 W/m/K
417.07 K, 50875 kPa, Liquid, transient hot wire	0.06482 W/m/K
417.08 K, 3783 kPa, Liquid, transient hot wire	0.04192 W/m/K
417.08 K, 3784 kPa, Liquid, transient hot wire	0.04234 W/m/K
417.08 K, 50878 kPa, Liquid, transient hot wire	0.06554 W/m/K
417.11 K, 1022 kPa, Gas, transient hot wire	0.02183 W/m/K
417.11 K, 1023 kPa, Gas, transient hot wire	0.02181 W/m/K
417.11 K, 24870 kPa, Liquid, transient hot wire	0.05563 W/m/K
417.11 K, 35758 kPa, Liquid, transient hot wire	0.06018 W/m/K
417.11 K, 35760 kPa, Liquid, transient hot wire	0.06018 W/m/K
417.12 K, 368 kPa, Gas, hot wire	0.02238 W/m/K
417.12 K, 24862 kPa, Liquid, transient hot wire	0.05569 W/m/K
417.13 K, 2206 kPa, Liquid, transient hot wire	0.04049 W/m/K
417.13 K, 10587 kPa, Liquid, transient hot wire	0.0479 W/m/K
417.14 K, 36 kPa, Gas, hot wire	0.02006 W/m/K
417.15 K, 141 kPa, Gas, hot wire	0.02023 W/m/K and 0.0203 W/m/K
417.15 K, 588 kPa, Gas, hot wire	0.02157 W/m/K
417.15 K, 2206 kPa, Liquid, transient hot wire	0.04048 W/m/K
417.15 K, 10596 kPa, Liquid, transient hot wire	0.04784 W/m/K
417.16 K, 36 kPa, Gas, hot wire	0.01976 W/m/K
417.16 K, 367 kPa, Gas, hot wire	0.02181 W/m/K
417.16 K, 587 kPa, Gas, hot wire	0.02144 W/m/K
417.17 K, 1132 kPa, Gas, transient hot wire	0.02232 W/m/K
417.21 K, 6422 kPa, Liquid, transient hot wire	0.04496 W/m/K
417.21 K, 50843 kPa, Liquid, transient hot wire	0.06558 W/m/K
417.22 K, 6424 kPa, Liquid, transient hot wire	0.04481 W/m/K
417.22 K, 16290 kPa, Liquid, transient hot wire	0.05134 W/m/K
417.23 K, 16286 kPa, Liquid, transient hot wire	0.05137 W/m/K
417.23 K, 50866 kPa, Liquid, transient hot wire	0.06561 W/m/K
417.27 K, 36 kPa, Gas, hot wire	0.02022 W/m/K and 0.02032 W/m/K
417.28 K, 1023 kPa, Gas, transient hot wire	0.02198 W/m/K and 0.02197 W/m/K
417.28 K, 3783 kPa, Liquid, transient hot wire	0.04235 W/m/K
417.28 K, 3784 kPa, Liquid, transient hot wire	0.04243 W/m/K
417.28 K, 24853 kPa, Liquid, transient hot wire	0.0557 W/m/K
417.28 K, 24856 kPa, Liquid, transient hot wire	0.0557 W/m/K
417.28 K, 35752 kPa, Liquid, transient hot wire	0.06016 W/m/K
417.28 K, 35756 kPa, Liquid, transient hot wire	0.06019 W/m/K
417.29 K, 367 kPa, Gas, hot wire	0.02172 W/m/K
417.29 K, 996 kPa, Gas, transient hot wire	0.02211 W/m/K and 0.02184 W/m/K
417.31 K, 140 kPa, Gas, hot wire	0.02018 W/m/K
417.32 K, 140 kPa, Gas, hot wire	0.02001 W/m/K
417.32 K, 10582 kPa, Liquid, transient hot wire	0.04781 W/m/K
417.32 K, 10584 kPa, Liquid, transient hot wire	0.04786 W/m/K
417.33 K, 788 kPa, Gas, transient hot wire	0.02096 W/m/K
417.33 K, 791 kPa, Gas, transient hot wire	0.02134 W/m/K
417.33 K, 2205 kPa, Liquid, transient hot wire	0.04065 W/m/K
417.34 K, 2205 kPa, Liquid, transient hot wire	0.0406 W/m/K
417.36 K, 50814 kPa, Liquid, transient hot wire	0.06551 W/m/K
417.37 K, 50821 kPa, Liquid, transient hot wire	0.0652 W/m/K
417.39 K, 16280 kPa, Liquid, transient hot wire	0.05131 W/m/K
417.4 K, 6421 kPa, Liquid, transient hot wire	0.0453 W/m/K
417.4 K, 6422 kPa, Liquid, transient hot wire	0.04487 W/m/K
417.41 K, 597 kPa, Gas, transient hot wire	0.02073 W/m/K
417.42 K, 36 kPa, Gas, hot wire	0.02028 W/m/K and 0.02029 W/m/K
417.43 K, 595 kPa, Gas, transient hot wire	0.02069 W/m/K
417.43 K, 1024 kPa, Gas, transient hot wire	0.02226 W/m/K and 0.02228 W/m/K

Source: the NIST ThermoML archive (doi:10.1021/acs.jced.8b00132)
